Test results published in patent US7884118B2, “1-cycloalkyl-5-iodotetrazoles” (LANXESS Deutschland GmbH, priority 2005, dated 2011).

Tests used:
[1] = tested on: Aspergillus niger; assay: Minimum inhibitory concentration (MIC) against fungi, malt extract agar; format: cell-based; conditions: 336 h, 2 weeks at 28° C., 60 to 70% relative atmospheric humidity, read-out: Minimum inhibitory concentrations Aspergillus niger
Experimental: (§1) In each case, the active compounds according to the invention, in concentrations of from 0.1 mg/l to 5000 mg/l, were added to an agar which had been prepared using malt extracts. The MIC was determined after 2 weeks of storage at 28° C. and 60 to 70% relative atmospheric humidity. The MIC is the lowest concentration of active compound at which there is no colonization by the microbial species used.

[2] = tested on: Chaetomium globosum; assay: as above; format: cell-based; conditions: 336 h, 2 weeks at 28° C., 60 to 70% relative atmospheric humidity, read-out: Minimum inhibitory concentrations Chaetomium globosum
Experimental: as §1

[3] = tested on: Penicillium brevicaule; assay: as above; format: cell-based; conditions: 336 h, 2 weeks at 28° C., 60 to 70% relative atmospheric humidity, read-out: Minimum inhibitory concentrations Penicillium brevicaule
Experimental: as §1

- MIC [1]: < 20 µg/mL
- MIC [2]: < 20 µg/mL
- MIC [3]: < 20 µg/mL
- melting point: 119 °C
SMILES: Ic1nnnn1C1CCCC1 [Example 1, 1-Cyclopentyl-5-iodotetrazole]
